Values quoted from earlier work, collected in patent publication US20180140599A1, “PREVENTION AND/OR TREATMENT OF CONTRAST-INDUCED ACUTE KIDNEY INJURY” (Saghmos Therapeutics, Inc., priority 2016, published 2018).

Test system: patients with high serum creatinine levels undergoing coronary angiography/angioplasty
Settings: four published Phase 2 trials; compared with isotonic saline

COc1ccc(CN2CCNCC2)c(OC)c1OC [Trimetazidine]
reducing the risk of contrast-induced nephropathy (CIN): more effective than isotonic saline in reducing the risk of contrast-induced nephropathy (CIN)
